{
  "source": "patent US11965038B2",
  "about": "“Pharmaceutical composition comprising antibody binding specifically to lysyl-tRNA synthetase N-terminus as effective ingredient for preventing or treating immune cell migration-related disease” (Zymedi Co., Ltd., priority 2017, dated 2024)",
  "key": {"[1]": {"tested_on": "migration and invasion of immune cells", "conditions": "ear skin wound models, liver ischemia-reperfusion injury models; from Korean applications 10-2017-0076718 and 10-2018-0069146; cited from earlier work"}, "[2]": {"assay": "Body weight change in MCT-induced PAH model", "assay_type": "in vivo, SD rats", "conditions": "sildenafil 25 mpk, n = 5", "from_the_text": "(§1) To induce PAH in 7-week-old SD rats (Oriental Bio), 60 mpk of MCT (monocrotaline) were subcutaneously injected."}, "[3]": {"tested_on": "pulmonary arterial hypertension (PAH) models", "assay": "Echocardiography in MCT-induced PAH model", "assay_type": "in vivo, SD rats", "conditions": "PAH rats, MCT alone: three animals", "from_the_text": "as §1"}, "KRS": {"tested_on": "KRS", "assay": "Western blotting of KRS in cytosol and membrane fractions after LN421 treatment", "assay_type": "cell-based", "conditions": "1 μg/ml LN421, 0 h, 12 h, 24 h", "description": "After seeding RAW 264.7 cells (2×10^6 cells) in 100 pie plate and incubating for 18 hr, the serum free-DMEM media was treated with 1 μg/ml LN421 and the cells were harvested at 0 h, 12 h, and 24 h. RAW 264.7 cell proteins were separated into cytosol and membrane fractions using the ProteoExtract® Subcellular Proteome Extraction Kit (Calbiotech, cat #539790). The obtained protein was subjected to electrophoresis, transferred to PVDF membrane (Millipore) and blocked with 3% skim milk. KRS was then detected by the western blotting. Specifically, KRS polyclonal antibody (rabbit, Neomics, Co. Ltd. #NMS-01-0005) was added to bind for 1 hour. Unbound antibody was removed and then anti-rabbit secondary antibody (Thermo Fisher Scientific, #31460) was added. After reacting with the secondary antibody, the film was developed in the dark room using ECL reagent as a substrate. The detected bands were compared to standard molecular markers to identify the bands corresponding to the size of the KRS. Antibodies against Na+/K+ATPase (Abcam, ab76020) and tubulin (Santa cruz SC-5286) were used to identify plasma membrane and cytosol markers, respectively."}, "RAW 264.7 cells": {"tested_on": "RAW 264.7 cells", "assay": "Transwell migration assay with extracellular matrix proteins and laminin subtypes", "assay_type": "cell-based", "description": "In the extracellular matrix (ECM) that make up the blood vessels, it was identified which promotes the migration and invasion of monocytes/macrophages. Transwell migration assay was performed using collagen (collagen, Col), fibronectin (FN) and laminin (LN) as extracellular matrix. The specific experimental method is as follows. After transwells (Corning, #3421-5 mm) were coated with gelatin (0.5 mg/ml), RAW 264.7 cells (1×10^5 cells/well) were seeded into the top chamber. Fibronectin or Collagen was placed in the bottom chamber. Serum Free DMEM (500 μl) containing 10 μg/ml of Laminin (laminin mixture, Biolamina), Fibronectin or Collagen, respectively, was placed in the bottom chamber. After 24 hours, the cells were treated with 70% methanol for 30 minutes and fixed, and then stained with 50% Hematoxylin for 30 minutes. After removing non-migrating cells from the top of the membrane with a cotton swab, the membrane was taken and mounted on the slide. The migrating cells on the underside of the membrane were observed and quantified under a high magnification microscope.\nThe effects of laminin subtypes on immune cell migration and invasion were evaluated. A transwell cell migration assay was performed in the same manner as in the Example 1 using LN111, LN211, LN221, LN411, LN421, LN511, and LN521 at 1 μg/ml as various laminin subtype proteins (purchased from Biolamina). […]"}},
  "data": [
    {"compound": "COc1ccc(CCN(Cc2ccc(C(=O)O)cc2)c2nc3cccc(F)c3s2)cc1", "note": "[BC-KI-00053, 4-({(7-fluorobenzo [d]thiazol-2-yl) [2-(4-methoxyphenyl)ethyl]amino}methyl) benzoic acid]", "values": [
      {"measurement": "migration and invasion of immune cells", "setting": "[1]", "result": "inhibited"}
    ]},
    {"compound": "CCCc1nn(C)c2c(=O)[nH]c(-c3cc(S(=O)(=O)N4CCN(C)CC4)ccc3OCC)nc12", "note": "[Sildenafil, sildenafil]", "values": [
      {"measurement": "Relative change (weight)", "setting": "[2]; MCT + Mock IgG 48.8 ± 7.8", "result": "49.8 ± 10.5", "unit": "%"},
      {"measurement": "Absolute change (weight)", "setting": "[2]; MCT + Mock IgG 101.4 ± 14.2", "result": "104.1 ± 26.4", "unit": "g"},
      {"measurement": "D-shaped left ventricle finding indicating pressure overload in the right ventricle", "setting": "[3]", "result": "three animals"}
    ]},
    {"compound": "LN421: laminin subtype α4β2γ1, purchased from Biolamina", "values": [
      {"measurement": "amount of KRS detected in the cell membrane region", "setting": "KRS", "result": "increased"},
      {"measurement": "migration of monocytes/macrophages by laminin subtype", "setting": "RAW 264.7 cells; laminin subtypes at 1 μg/ml", "result": "specifically move in response"}
    ]},
    {"compound": "laminin", "values": [
      {"measurement": "migration of monocytes/macrophages", "setting": "RAW 264.7 cells; collagen, fibronectin or laminin mixture 10 μg/ml in bottom chamber, 24 hours", "result": "most strongly promotes"}
    ]}
  ]
}
